In brackets after ≈: the same amount, converted by molar mass. Like-named read-outs stand apart in the source and are kept apart here.
Legend:
C. auris strain TDG1912 = assay: Galleria mellonella infection model, larval survival; assay type: in vivo; details: G. mellonella infected with C. auris TDG1912; survival over 120 hours
Description: The effects of test compounds in-vivo was assessed using a Galleria mellonella infection model.
G. mellonella were injected in a proleg with 10 μL of C. auris strain TDG1912 (OD4) at a concentration of 1×10^6 cfu/10 μL using a Hamilton syringe and left for 30 minutes to recover from injection and to allow infection to begin. The G. mellonella were then injected with 10 μL of the compound of the invention at either 50 mg/kg (10% DMSO) or 20 mg/kg (4% DMSO) or PBS containing 10% DMSO as an infection-only control. 10 larvae were selected for each treatment, and the experiment was repeated 3 times for the test compound and fluconazole. Survival of larvae was monitored for a 5 day period and results are presented as % survival over 120 hours (see FIG. 1).

[1] = tested on: Aspergillus fumigatus ATCC 1028; assay: Aspergillus panel MIC; assay type: cell-based; details: Table 8
Description: (§1) Starter cultures of fungal strains to be tested were grown in 3 mL of RPMI 2% glucose media incubated at 37° C. with shaking at 200 rpm overnight. The culture media used was 900 mL H2O; 10.4 g RPMI 1640 (with L-glutamine and a pH indicator but without bicarbonate); 34.5 g MOPS and 18 g glucose. The pH of the media was adjusted to 7.0 with 1 M sodium hydroxide.
(§2) Solutions of the compound to be tested were prepared by dissolving the compound in DMSO and subsequently into media to the desired concentrations. 200 μL of compound solution was then added to the wells of the 96-well plate using a serial dilution method row-by row of the plate to give a compound concentration gradient across the plate of from 128 μg/mL to 0.25 μg/mL. The last two rows of each plate were control rows containing the culture media alone and the media plus fungi.
(§3) The fungi starter cultures were diluted 1:10 in water in cuvettes. This was then further diluted to an optical density (OD600) of 0.01 in media. 100 μL of the fungi was added to each well giving a starting concentration of fungus of 0.5-5×10^5/mL. One species of fungus was used on each plate. The plates were then held at 37° C. for 24 hours.
(§4) A plate reader was used to measure growth in each well at OD530 nm and the MIC was determined for each test compound. The MIC is defined as the lowest concentration giving rise to inhibition of ≥50% of that of the drug-free control well containing the fungus and media.
(§5) The compound of Example 2 (which corresponds to compound number 2) was tested against a panel of Aspergillus strains using a method analogous to that described above for the Candida Panel.

[2] = tested on: Aspergillus fumigatus ATCC 10894; assay: Aspergillus panel MIC; assay type: cell-based; details: Table 8
Description: as §1, §2, §3, §4, §5

C. parapsilosis NCPF3209 = assay: microbe, parasite or virus in culture; assay type: cell-based, Candida parapsilosis; details: Lodderomyces parapsilosis
Method in brief: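 MIC taken as lowest concentration inhibiting growth ≥50% relative to drug-free control, from OD530 after 24 hours at 37° C. Fungi at 0.5-5×10^5/mL were exposed to serially diluted compound in RPMI 1640/MOPS/2% glucose medium adjusted to pH 7.0.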

Candida auris TDG2506 = assay: microbe, parasite or virus in culture; assay type: cell-based; details: Candidozyma auris
Method in brief: (§6)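 Starter cultures grown overnight at 37° C in RPMI 1640/MOPS/2% glucose, pH 7.0; inoculum 0.5-5×10^5/mL with compound serially diluted from DMSO into media.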

Candida auris TDG2211 = assay: microbe, parasite or virus in culture; assay type: cell-based; details: Candidozyma auris
Method in brief: as §6

SMILES: OC(Cn1cncn1)(Cn1cncn1)c1ccc(F)cc1F [Fluconazole, fluconazole, reference compound]
- Protection against multi-drug resistant C. auris (larval survival) (C. auris strain TDG1912): no significant effect
- Minimum inhibitory concentration Aspergillus fumigatus ATCC 1028 [1]: >64
- Minimum inhibitory concentration Aspergillus fumigatus ATCC 10894 [2]: >64
- MIC (C. parapsilosis NCPF3209; NCPF3209, read-out: MIC C. Parapsilosis NCPF3209): ≤ 0.25 µg/mL
- MIC (C. parapsilosis NCPF3209; NCPF3209, read-out: MIC Fluconazole, C. parapsilosis 3209): 0.5 µg/mL (≈ 1.63 µM)
- MIC (C. parapsilosis NCPF3209; NCPF3209, Table 4, common panel, 24 hours, ≥50% inhibition, read-out: MIC C. parapsilosis NCPF3209): ≤ 0.25 µg/mL
- MIC (Candida auris TDG2506; TDG2506, read-out: MIC C. auris 2506): > 128 µg/mL
- MIC (Candida auris TDG2506; TDG2506, Table 4, extended panel, 24 hours, ≥50% inhibition, read-out: MIC Candida auris TDG2506): > 128 µg/mL
- MIC (Candida auris TDG2211; TDG2211, read-out: MIC C. auris 2211): 16 to 128 µg/mL (≈ 52.2 to 418 µM)
- MIC (Candida auris TDG2211; TDG2211, Table 4, extended panel, 24 hours, ≥50% inhibition, read-out: MIC Candida auris TDG2211): 64 µg/mL (≈ 209 µM)

— patent publication US20240246920A1, “TRIAZOLE DERIVATIVES WITH ANTIFUNGAL ACTIVITY” (King's College London, priority 2020, published 2024)
